Experimental data as given in patent US4678750A, “Method and compositions for use in the treatment of fireblight” (Microlife Technics, Inc., priority 1984, dated 1987).

System: depolymerase from phage-infected E. amylovora NCPPB595
Experiment: Effect of chemical agents on depolymerase activity (galactose release from polysaccharide)
Assay type: biochemical, phage ERA103 / Erwinia amylovora NCPPB595
Conditions: for Effect of agent on depolymerase activity (in words): Table 2; for Activity % Control: control assay without inhibitors
Method: Depolymerase activity was assayed by following the release of galactose from the polysaccharide substrate according to the method of Fairbridge (Fairbridge,R. A., et al. Biochem. J. 49:423-427 (1951)). The reaction mixture consisted of the following: 100 microliters of the appropriate enzyme solution and 100 microliters of polysaccharide (10 mg/ml) suspended in 0.01M citrate buffer, pH 6.0 containing 0.01M 2-mercaptoethanol. One unit of enzyme was defined as the amount of enzyme required to produce 1 micromole of galactose per minute under standard assay conditions.
Substrate Preparation. Polysaccharide was prepared from uninfected cultures of Erwinia amylovora NCPPB595 cultivated on sheets of cellophane overlaying Tryptic Soy agar, as decribed by Liu (Liu, P.V., et al., J. Infect. Dis. 108:218-228 (1961)). The polysaccharide was extracted from the slime layer according to the method of Liu.
The effect of various chemical agents on depolymerase activity can be seen in Table 2.

[1] = agent 10.0 millimoles per liter

Row | Compound | Effect of agent on depolymerase activity (in words) | Activity % Control (agent 0.1 millimoles per liter) | Activity % Control (agent 1.0 millimoles per liter) | Activity % Control [1]
1 | O=C(O)CI [Iodoacetate] | no efect on enzymatic activity | 100 % Control | 100 % Control | 100 % Control
2 | Oc1cccc2cccnc12 [8-hydroxyquinoline] | insensitive | – | – | –
3 | OC(CS)C(O)CS (centres unmarked) [Dithiothreitol, 1,4 dimercapto-2,3-butanediol] | enhanced depolymerase activity substantially | 122 % Control | 138 % Control | 258 % Control
4 | CCN1C(=O)C=CC1=O [N--ethylmaleimide, N-ethylmaleimide] | no efect on enzymatic activity | 100 % Control | 100 % Control | 100 % Control
5 | OCCS [2-Mercaptoethanol] | enhanced depolymerase activity substantially | 122 % Control | 155 % Control | 168 % Control
6 | [N-]=[N+]=[N-] [Sodium azide] | insensitive | 100 % Control | 100 % Control | 100 % Control
7 | ethylene-di-(o-hydroxyphenylacetate) | insensitive | 100 % Control | 100 % Control | 100 % Control
8 | O=C(O)c1cc[c]([Hg][Cl])cc1 [p-Chloromercuribenzoate] | inhibited the enzyme at all concentrations tested | 0 % Control | 0 % Control | 0 % Control
